Measured values from paper PMC7203576 (Frontiers in Microbiology, 2020).

Each compound was assayed on Magnaporthe oryzae Triticum (MoT) isolate BTJP 4 (5).

| Compound | Activity against MoT |
| --- | --- |
| CCC(O)CC1CCC(C(C)C(=O)OC(C)CC2CCC(C(C)C(=O)O)O2)O1 (stereo not drawn) [Bonactin, reference compound] | Active |
| CC(=O)c1c(O)cc(O)cc1O [Monoacetylphloroglucinol (MAPG), Monoacetylphloroglucinol, reference compound] | Inactive |
| Gageostatin A [reference compound] | Inactive |
| Gageotetrin C [reference compound] | Inactive |
| Neomycin [reference compound] | Active |
| Gageostatin C [reference compound] | Inactive |
| CCCCCCCC/C=C\CCCCCCCc1cc(O)c(C)c(O)c1 [2-Methyl-5-(8Z-heptadecenyl) resorcinol, reference compound] | Inactive |
| CCCc1c(O)cc(O)c(CCC)c1O [2,4-Dipropylphloroglucinol (DPPG), 2,4-Dipropylphloroglucinol, reference compound] | Inactive |
| COc1ccc2c(c[n+](C)c3c4cc5c(cc4ccc23)OCO5)c1OC [Chelerythrine chloride, reference compound] | Active |
| C[C@@H]1C/C=C/C=C/C=C/C=C/[C@H](O[C@@H]2O[C@H](C)[C@@H](O)[C@H](N)[C@@H]2O)C[C@@H]2O[C@](O)(C[C@@H](O)C[C@H]3O[C@@H]3/C=C/C(=O)O1)C[C@H](O)[C@H]2C(=O)O [Natamycin, reference compound] | Inactive |
| C[C@@H]1CCC/C=C/C=C/[C@H](O)C[C@@H](O)C/C=C\C=C\[C@@H](O)C/C=C/C=C\C(=O)O1 [Macrolactin A, reference compound] | Inactive |
| CCCCCCCC/C=C\CCCCCCCc1cc(O)cc(O)c1 [5-(8Z-Heptadecenyl) resorcinol, reference compound] | Inactive |
| CC[C@H]1/C=C/C=C/C[C@@H](C)[C@H](O)[C@@](C)(O)C(=O)[C@@H](C)[C@H](O)[C@@H](C)C(=O)[C@@H](C)[C@H](O)[C@@H](C)/C=C/C(=O)O[C@@H]2[C@H](C)[C@H](CC1)O[C@@]1(O[C@@H](C[C@@H](C)O)[C@@H](C)CC1=O)[C@H]2C [Oligomycin B, reference compound] | Active |
| C[C@H]1CCC/C=C\C=C\[C@H](O)C[C@@H](O)C/C=C\C=C\[C@@H](OC(=O)CCC(=O)O[C@H]2O[C@@H](CO)[C@H](O)[C@@H](O)[C@@H]2O)C/C=C/C=C\C(=O)O1 [Macrolactin W, reference compound] | Inactive |
| Macrolactin B [reference compound] | Active |
| CC1(C)S[C@@H]2[C@H](NC(=O)Cc3ccccc3)C(=O)N2[C@H]1C(=O)O [Penicillin G, reference compound] | Inactive |
| Oc1cc(O)cc(O)c1 [Phloroglucinol (PG), Phloroglucinol, reference compound] | Inactive |
| CN[C@@H]1C[C@H]2O[C@@](C)([C@@H]1OC)n1c3ccccc3c3c4c(c5c6ccccc6n2c5c31)C(=O)NC4 [Staurosporine, reference compound] | Active |
| CCCCCC[C@H]1C(=O)O[C@H](C)[C@H](NC(=O)c2cccc(NC=O)c2O)C(=O)O[C@@H](C)[C@@H]1OC(=O)CC(C)C [Antimycin-A, reference compound] | Active |
| CC(=O)c1c(O)c(C(C)=O)c(O)c(C(C)=O)c1O [2,4,6-Triacetylphloroglucinol (TAPG 3), 2,4,6-Triacetylphloroglucinol, reference compound] | Inactive |
| Gageostatin B [reference compound] | Inactive |
